Measured values: PubChem BioAssay (NCI)
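Results reflect a 48-hour exposure of cells in 96-well plates to compound at five concentrations. Here, GI50 denotes the concentration required for 50% inhibition of growth. The concentration for full growth arrest is given as TGI.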

How the values were obtained:
Assay in all cases: growth of human tumour cells (NCI), 48 h
[1] = system: HCC-2998 colon
[2] = system: HCT-116 colon
[3] = system: NCI-H23 lung
[4] = system: SF-268 CNS
[5] = system: A549 NSCLC
[6] = system: OVCAR-8 ovarian
[7] = system: SK-MEL-2 melanoma
[8] = system: MDA-MB-435
[9] = system: BT-549 breast
[10] = system: MDA-MB-231 breast

SMILES | TGI [1] [µM] | TGI [2] [µM] | TGI [3] [µM] | TGI [4] [µM] | TGI [5] [µM] | TGI [6] [µM] | TGI [7] [µM] | GI50 [8] [µM] | TGI [8] [µM] | GI50 [9] [µM] | TGI [9] [µM] | GI50 [2] [µM] | GI50 [3] [µM] | GI50 [4] [µM] | GI50 [10] [µM] | TGI [10] [µM] | GI50 [5] [µM] | GI50 [6] [µM] | GI50 [7] [µM] | GI50 [1] [µM]
Cc1cccc(C)c1N1C(=O)C(=O)C(c2nc3ccccc3s2)/C(=N/NC(=O)c2ccccc2O)C1=O (stereo not drawn) | > 73.1 | > 79.5 | 39.1 | > 68.8 | > 100 | > 100 | > 100 |  |  |  |  |  |  |  |  |  |  |  |  | 
N#CC(C#N)=Cc1ccc(CP(=O)(O)O)cc1 | > 100 | > 100 | > 100 | > 100 | > 100 | > 100 | > 100 |  |  |  |  |  |  |  |  |  |  |  |  | 
COc1ccc2c(c1)NC1(O)c3ccccc3C(=O)C21O (stereo not drawn) |  | > 100 | > 100 | > 100 | > 100 | > 100 |  |  |  |  |  |  |  |  |  |  |  |  |  | 
O=S(=O)(N=NC=C1c2ccccc2N(O)c2ccccc21)c1ccc(Cl)cc1 | > 100 | > 100 | > 100 | > 100 | > 100 | > 100 | > 100 |  |  |  |  |  |  |  |  |  |  |  |  | 
COC1=CC(c2ccc[nH]2)=N/C1=C\c1[nH]c(C)c(CC(=O)OCc2ccccc2)c1C |  | 1.05 | 2.98 | 2.56 | 6.05 | 1.27 | 0.51 | 0.369 | 1.42 | 0.432 | 3.08 | 0.219 | 0.399 | 0.358 | 0.144 | 0.859 | 0.361 | 0.362 | 0.198 | 
CC1=NOC(=O)/C1=C/c1ccc([N+](=O)[O-])cc1 | > 100 | > 100 | > 100 | > 100 | > 100 | > 100 | > 100 |  |  |  |  |  |  |  |  |  |  |  |  | 
NC(=O)c1cccc(OCC(O)CO)c1 (stereo not drawn) | > 100 | > 100 | > 100 | > 100 | > 100 | > 100 | > 100 |  |  |  | > 100 |  |  |  |  | > 100 |  |  |  | 
CC(C)(C)N/N=C(\C(=O)Nc1nc(=S)[nH][nH]1)C1C(=O)Nc2ccccc2S1=O (stereo not drawn) | > 100 | > 100 | > 100 | > 100 | > 100 | > 100 | > 100 |  |  |  |  |  |  |  |  |  |  |  |  | 
CC(=O)NNc1nc(C)c(C(=O)/C=C/c2ccc(Cl)cc2)s1 | > 100 |  | > 100 | > 100 | > 100 | > 100 | > 100 |  |  |  |  |  |  |  |  |  |  |  |  | 
CC(C)C(=O)c1c(C(F)(F)F)n([O-])c2cc(F)c(F)cc2[n+]1=O | 1.37 |  | 1.16 | 1.05 | 4.14 | 0.85 | 27.8 | 0.724 | 2.15 | 0.587 | 1.9 |  | 0.263 | 0.4 | 0.176 | 0.77 | 1.38 | 0.262 | 0.234 | 0.326
CCCCc1c2cnccc2c(CCCC)c2c1[nH]c1ccccc12 | > 100 | 18.1 | 36.2 | 47.1 | 29.5 | 31.1 | 30.5 |  |  |  |  |  |  |  |  |  |  |  |  | 
Cc1nc(/C=C2\C(=O)C=Cc3ccccc32)c(O)o1 | > 100 | > 100 | > 100 | > 100 | > 100 | > 100 | > 100 |  |  |  |  |  |  |  |  |  |  |  |  | 
N/N=C(\c1nc2ccc(Cl)cc2[nH]c1=O)C(O)c1ccc(Cl)c(Cl)c1 (stereo not drawn) | > 100 | > 100 | > 100 | > 100 | > 100 | > 100 | > 100 |  |  |  |  |  |  |  |  |  |  |  |  | 
COc1cc2c(cc1OC)C1Cc3ccc(OC)c(OC)c3C[N+]1([O-])CC2 (stereo not drawn) | > 100 | > 100 | > 100 | > 100 | > 100 | > 100 | > 100 |  |  |  |  |  |  |  |  |  |  |  |  | 
CC1CC(C)C2OC2(C)C[C@H](C)C(=O)NC(C)C(=O)N(C)[C@H](Cc2c(Br)[nH]c3ccccc23)C(=O)N[C@@H](c2ccc(O)cc2)CC(=O)O1 (stereo partly drawn) | 0.505 | > 33.1 | > 40.4 |  | > 100 | > 52.7 | 0.876 |  |  |  |  |  |  |  |  |  |  |  |  | 
COc1ccc(C(=O)CC2=Nc3nnc(CCCCCCCc4nnc5n4C(=O)C(CC(=O)c4ccc(OC)cc4)=N5)n3C2=O)cc1 | > 100 | > 100 | > 100 | > 100 | > 100 | > 100 |  |  |  |  |  |  |  |  |  |  |  |  |  | 
COc1cc(C(C)c2cc3c(cc2OCCNC(=O)COc2cc4c(cc2C(C)c2cc(OC)c(OC)c(OC)c2)OCO4)OCO3)cc(OC)c1OC (stereo not drawn) | > 100 | > 100 | > 100 | > 100 | > 100 | > 100 | > 100 |  |  |  |  |  |  |  |  |  |  |  |  | 
